From ChEMBL document CHEMBL4130565, “Consequences of Depsipeptide Substitution on the ClpP Activation Activity of Antibacterial Acyldepsipeptides” (ACS Med Chem Lett, 2017)
“And” between values parts separate entries of the source, which are not always exact repeats. Equal values may be shown once. Where a SMILES comes first, the peptide text is derived from it. Bridges are numbered along the chain shown (N, C = ends). [ ]: non-standard residue; d: D form. The star is where a group is joined. Phe(3,5-F2) = N[C@@H](Cc1cc(F)cc(F)c1)C(=O)O; Heptenoyl(2E) = CCCC/C=C/C(=O)*; NMeA = CN[C@@H](C)C(=O)O; Dap = NC[C@H](N)C(=O)O

Experiments:
[1] = biological target: ATP-dependent Clp protease proteolytic subunit (Bacillus subtilis (strain 168)) (UniProt P80244); test: Activation of Bacillus subtilis ClpP expressed in Escherichia coli BL21(DE3) using Abz-DFAPKMALVPYNO2 as substrate pretreated for 15 mins followed by substrate addition measured every 30 mins for 2 hrs by fluorescence assay
Chain of ATP-dependent Clp protease proteolytic subunit (Bacillus subtilis (strain 168)) (P80244 whole entry, looked up): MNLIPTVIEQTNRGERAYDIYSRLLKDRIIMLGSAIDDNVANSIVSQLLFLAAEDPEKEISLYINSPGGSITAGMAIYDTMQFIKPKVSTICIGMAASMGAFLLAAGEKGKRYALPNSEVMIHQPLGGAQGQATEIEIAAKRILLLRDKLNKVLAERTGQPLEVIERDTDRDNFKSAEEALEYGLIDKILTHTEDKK

Bacillus subtilis = test: Antibacterial activity against Bacillus subtilis ATCC 6051 after 16 hrs by microdilution method; format: functional; conditions: ATCC 6051, 16 h
[2] = biological target: ATP-dependent Clp protease proteolytic subunit (Bacillus subtilis (strain 168)) (UniProt P80244); test: Stabilization of Bacillus subtilis ClpP assessed as change in melting temperature at 50 uM after 30 mins by SYPRO orange protein gel staining based FRET analysis
[3] = Half life in CD3OD assessed as hydrogen-deuterium exchange by 1H-NMR analysis; format: physicochemical

Row | Kapp [1] [µM] | MIC (Bacillus subtilis) | ΔTm [2] [°C] | half-life [3] [min] | SMILES
1 | 4.39 | > 25 µM and > 18.6 µg/mL | 12.7 | < 4 | CCCC/C=C/C(=O)N[C@@H](Cc1cc(F)cc(F)c1)C(=O)N[C@H]1CN(C)C(=O)[C@@H]2CCCN2C(=O)[C@H](C)NC(=O)[C@H](C)N(C)C(=O)[C@@H]2CCCN2C1=O
2 | 0.037 | 0.037 µM and 0.027 µg/mL | 29.1 | 38 | CCCC/C=C/C(=O)N[C@@H](Cc1cc(F)cc(F)c1)C(=O)N[C@H]1COC(=O)[C@@H]2CCCN2C(=O)[C@H](C)NC(=O)[C@H](C)N(C)C(=O)[C@@H]2CCCN2C1=O ({Heptenoyl(2E)}-[Phe(3,5-F2)]SP[NMeA]AP; ester 2-C)
3 | 0.085 | 6.25 µM and 4.6 µg/mL | 22.8 | < 4 | CCCC/C=C/C(=O)N[C@@H](Cc1cc(F)cc(F)c1)C(=O)N[C@H]1CNC(=O)[C@@H]2CCCN2C(=O)[C@H](C)NC(=O)[C@H](C)N(C)C(=O)[C@@H]2CCCN2C1=O ({Heptenoyl(2E)}-[Phe(3,5-F2)][Dap]P[NMeA]AP; lactam 2-C)
